Values of other authors, collected in paper PMC11599114 (Viruses, 2024).
Read-outs that look alike come from different tables or passages of the source.

Key:
INFVA = tested on: INFVA; design: method as in AVPdb; details: ref AVPdb; for IC50: virus entry
SARS-CoV-2 [1] = details: SARS-CoV-2, Vero
HSV-1 = details: HSV-1, Vero
[2] = tested on: influenza virus(H1N1,VR-1894); details: H1N1 VR-1894, MDKC
Measles virus(MeV) = details: VERO/hSLAM
SARS-CoV-2 [3] = tested on: SARS-CoV-2; design: method as in 3 sources; details: SARS-CoV-2 infection, Vero E6
[4] = tested on: human parainfluenza virus 3 (HPIV3); design: method as in ref 16973588; details: HPIV3 infection, HeLa
[5] = tested on: human parainfluenza virus 3 (HPIV3); design: method as in ref 16973588; details: HPIV3 fusion, HeLa
influenza A virus(H1N1) = tested on: influenza A virus(H1N1); design: method as in 2 sources; details: A(H1N1), MDCK
HCoV-OC43 = details: HCoV-OC43, Vero
HCoV-229E = details: Vero
HSV-2 = details: HSV-2, Vero

In the case of AETVESCLAKPHTEN [AVP0967], the IC50 (INFVA) is given as 66 µM.
In the case of AGDDQGLDKCVPNSKEK [AVP1195], the EC50 (INFVA; fusion) is listed as 3.7 ± 0.35 pM.
For AKIXQSLXFIXKSDXLLHNV [DRAVPe00631], the IC50/EC50 (RSV; ref DRAVP) is listed as 1.16 ± 0.08 µM.
For AVASVPRARGKYWWG [AVP0965], the IC50 (INFVA) is listed as 44 µM.
In the case of “AVSKVLHLEGEVNKISALLSTNKAVVSLSNGVSVLTSKVLDLDNYIDKQLLPIVNK [AVP1971]”, the IC50/EC50 (RSV; fusion, ref AVPdb) is given as 1.68 µM.
In the case of CFVPWFSKFlXRIL [DRAVPe00391], the IC90 (SARS-CoV-2 [1]) is given as 1.89 µM, the IC90 (HSV-1) is given as 2.19 µM and the IC90 [2] is given as 5.89 µM. For the same substance, the IC90 (Measles virus(MeV)) was 31.1 µM.
For CGGFVPWFSKFlXRIL [DRAVPe00392], the IC90 (SARS-CoV-2 [1]) is listed as 10.2 µM, the IC90 (HSV-1) is listed as 8.21 µM and the IC90 [2] is listed as 9.9 µM. For the same substance, the IC90 (Measles virus(MeV)) was 49.9 µM.
For “DASISQVNEKINQSLAFIRKSDELLHNVNAGKSTT [AVP0142]”, the IC50/EC50 (RSV; fusion, ref AVPdb) is listed as 8 µM.
In the case of “DEDLEELERLYRKAEEVAKEAKDASRRGDDERAKEQMERAMRLFDQVFELAQELQEKQTDGNRQKATHLDKAVKEAADELYQRVR [DRAVPe00480]”, the IC50 (SARS-CoV-2 [3]) is listed as 0.035 µM.
In the case of “DEFDASISQVNEKINQSLAFIRKSDELLHNVNAGK [AVP0139]”, the IC50/EC50 (RSV; fusion, ref AVPdb) is given as 12 µM.
In the case of DFRRLPGAFWQLRQP [AVP0966], the IC50 (INFVA) is given as 52 µM.
For “DITLNNSVALDPIDISIELNKAKSDLEESKEWIRRSNQKLDSIGN [DRAVPe01310]”, the IC50 [4] is given as 0.5 µM and the IC50 [5] is given as 0.5 µM.
For “DPLVFPSDEFDASISQVNEKINQSLAFIRKSDELL [AVP0132]”, the IC50/EC50 (RSV; fusion, ref AVPdb) is given as 8 µM.
In the case of EAIXQSLXFIXKSDXLLHNV [DRAVPe00632], the IC50/EC50 (RSV; ref DRAVP) is given as 0.60 ± 0.02 µM.
In the case of EEQAKTFLDK [DRAVPe01627], the inhibition (SARS-CoV; 100 µM) is listed as 25%.
In the case of “EEQAKTFLDKFNHEAEDLFYQSSGLGKGDFR [DRAVPe01632]”, the IC50 (SARS-CoV) is listed as 0.1 µM.
For “EFDASISQVNEKINQSLAFIRKSDELLHNVNAGKS [AVP0140]”, the IC50/EC50 (RSV; fusion, ref AVPdb) is listed as 13 µM.
In the case of EKAXQSLXFIXKSDXLLHNV [DRAVPe00633], the IC50/EC50 (RSV; ref DRAVP) is given as 1.30 ± 0.89 µM.
For EKIAQSLXFIRXSDXLLHXV [DRAVPe00629], the IC50/EC50 (RSV; ref DRAVP) is listed as 20.41 ± 2.4 µM.
In the case of EKINQSLAFIRKSDELLHNV [DRAVPe00623], the IC50/EC50 (RSV; ref DRAVP) is listed as over 50 µM.
In the case of EKINQSLXFIAXSDXLLHXV [DRAVPe00630], the IC50/EC50 (RSV; ref DRAVP) is listed as 175 ± 0.00 µM.
For EKIXASLXFIXKSDXLLHNV [DRAVPe00634], the IC50/EC50 (RSV; ref DRAVP) is given as 0.28 ± 0.43 µM.
For EKIXQALXFIXKSDXLLHNV [DRAVPe00635], the IC50/EC50 (RSV; ref DRAVP) is given as 0.66 ± 0.26 µM.
For EKIXQSAXFIXKSDXLLHNV [DRAVPe00636], the IC50/EC50 (RSV; ref DRAVP) is given as 0.95 ± 0.53 µM.
In the case of EKIXQSLXAIXKSDXLLHNV [DRAVPe00637], the IC50/EC50 (RSV; ref DRAVP) is given as 1.39 ± 0.10 µM.
In the case of EKIXQSLXFAXKSDXLLHNV [DRAVPe00638], the IC50/EC50 (RSV; ref DRAVP) is given as 10.44 ± 2.97 µM.
For EKIXQSLXFIXASDXLLHNV [DRAVPe00639], the IC50/EC50 (RSV; ref DRAVP) is listed as 10.93 ± 13.90 µM.
In the case of EKIXQSLXFIXKADXLLHNV [DRAVPe00640], the IC50/EC50 (RSV; ref DRAVP) is listed as 82.04 ± 1.56 µM.
In the case of EKIXQSLXFIXKSAXLLHNV [DRAVPe00641], the IC50/EC50 (RSV; ref DRAVP) is given as 1.10 ± 0.08 µM.
In the case of EKIXQSLXFIXKSDXALHNV [DRAVPe00642], the IC50/EC50 (RSV; ref DRAVP) is given as 0.88 ± 0.06 µM.
For EKIXQSLXFIXKSDXLLANV [DRAVPe00643], the IC50/EC50 (RSV; ref DRAVP) is given as 0.52 ± 0.07 µM.
For EKIXQSLXFIXKSDXLLHAV [DRAVPe00644], the IC50/EC50 (RSV; ref DRAVP) is given as 2.71 ± 2.93 µM.
For EKIXQSLXFIXKSDXLLHNA [DRAVPe00645], the IC50/EC50 (RSV; ref DRAVP) is listed as 0.60 ± 0.03 µM.
In the case of “ELEEQVMHVLDQVSELAHELLHKLTGEELERAAYFNWWATEMMLELIKSDDEREIREIEEEARRILEHLEELARK [DRAVPe00481]”, the IC50 (SARS-CoV-2 [3]) is given as 0.0155 µM.
In the case of EXINXSLXFIRXSDALLHNV [DRAVPe00646], the IC50/EC50 (RSV; ref DRAVP) is listed as 1.00 ± 0.03 µM.
For EXINXSLXFIRXSDELLHNV [DRAVPe00626], the IC50/EC50 (RSV; ref DRAVP) is given as 0.59 ± 0.13 µM.
For “FDASISQVNEKINQSLAFIRKSDELLHNVNAGKST [AVP0143]”, the IC50/EC50 (RSV; fusion, ref AVPdb) is listed as 0.051 µM.
In the case of FFVIFYRRKK [AVP1808], the IC50 (INFVA) is listed as 1.48 µM.
For FINGRWDSQCHRFSNGAIACA [DRAVPe01800], the IC50 (influenza A virus(H1N1)) is listed as 6.6 µg/mL.
In the case of “FPSDEFDASISQVNEKINQSLAFIRKSDELLHNVN [AVP0136]”, the IC50/EC50 (RSV; fusion, ref AVPdb) is listed as 8 µM.
For FVPWFSKFlGRIL [DRAVPe00377], the IC90 (SARS-CoV-2 [1]) is listed as 12.1 µM, the IC90 (HCoV-OC43) is listed as 15 µM and the IC90 (HCoV-229E) is listed as 30.1 µM. The IC90 (HSV-1) was 18.7 µM and the IC90 (HSV-2) was 16.7 µM.
In the case of FVPWFSKFlPRIL [DRAVPe00378], the IC90 (SARS-CoV-2 [1]) is given as 14 µM, the IC90 (HCoV-OC43) is given as 24.1 µM and the IC90 (HSV-1) is given as 18.8 µM. For the same substance, the IC90 (HSV-2) was 19.2 µM.
In the case of FVPWFSKFlWRIL [DRAVPe00385], the IC90 (SARS-CoV-2 [1]) is listed as 27.7 µM, the IC90 (HCoV-OC43) is listed as 24.2 µM and the IC90 (HCoV-229E) is listed as 50 µM. For the same substance, the IC90 (HSV-1) was 8.25 µM and the IC90 (HSV-2) was 12.5 µM.
